{"source": "patent US20210121438A1", "about": "“METHODS FOR TREATING OR PREVENTING CONFORMATION DISEASES AND METHODS FOR DRUG SCREENING” (GARAGE BRAIN SCIENCE CO., LTD, priority 2018, published 2021)", "key": {"TDP-43 polymers": {"target": "T1, TDP-43 polymers (Homo sapiens, UniProt Q13148)", "T1 construct": "endogenous in cells; host or cells: 293T", "test": "Western blotting of TDP-43 polymers in nuclear, cytosolic and urea fractions", "assay_type": "cell-based", "procedure": "Solubility Assay of TDP-43 and p53: Cells with or without transfection of TDP-43-FL or TDP-43-Q303P were lysed with RIPA buffer (50 mM Tris, 150 mM NaCl, 1 mM EDTA, 1% NP-40, pH 7.4), and the lysate was further fractionated by centrifugation at 16,000 g for 5 min at 4° C. The insoluble pellets were then dissolved in 8 M urea/50 mM Tris (pH 8.0). The proteins were identified by Western blotting using a polyclonal TDP-43 antibody or a monoclonal p53 antibody.\nTDP-43 proteinopathies in FTLD/ALS with the VCP/97 mutation R155H have been characterized. The VCP/97 mutation R155H alters the functions of VCP/97, redistributes TDP-43 to the cytosol, and leads to form-insoluble aggregates of TDP-43."}, "[1]": {"test_system": "SMNA7 aggregates in 293T cells", "test": "SMNA7 aggregate formation in 293T cells", "assay_type": "cell-based", "from_the_text": "(§1) We investigate whether baicalein can act as a pharmacological chaperone to refold misfolded SMNA7 into a functional prion-like domain, as shown in FIG. 8 (FIG. 10a). […] PFN1 is a known SMN interactor in the cytosol. We further examined whether baicalein attenuated the degradation of the SMNA7 protein. […] We found baicalein increased the length of axons from NSC34 cells expressing SMNA7 by approximately 2-fold (FIG. 10g)."}, "SMNA7 protein": {"target": "T2, SMNA7 protein (Homo sapiens, UniProt Q16637)", "T2 construct": "expressed in transfected cells", "T2 sequence (Q16637 1-282 isoform Q16637-3)": "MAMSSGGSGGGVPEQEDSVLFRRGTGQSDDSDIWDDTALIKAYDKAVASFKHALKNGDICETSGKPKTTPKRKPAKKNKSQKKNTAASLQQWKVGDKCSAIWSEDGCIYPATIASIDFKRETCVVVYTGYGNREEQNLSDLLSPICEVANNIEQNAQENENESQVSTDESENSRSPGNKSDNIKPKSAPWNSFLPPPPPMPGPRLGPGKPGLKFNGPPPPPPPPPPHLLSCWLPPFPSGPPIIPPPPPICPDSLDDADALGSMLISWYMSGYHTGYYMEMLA", "test": "SMNA7 protein degradation (Western blotting)", "assay_type": "cell-based", "conditions": "baicalein", "from_the_text": "as §1"}, "[2]": {"test_system": "NSC34 cells expressing SMNA7", "test": "Axon/neurite length of NSC34 motor neurons expressing SMNA7", "assay_type": "cell-based", "conditions": "NSC34 cells expressing SMNA7, baicalein 50 μM", "from_the_text": "as §1\nWe increased the amount of functional prion-like domains by overexpressing the TDP-43 prion-like domain (TDP-43-PLD) in NSC34 motor neuron cells expressing the SMNA7 proteins to confirm that the reduced level of the functional prion-like conformer caused axon degeneration in SMNΔ7-expressing neurons. The TDP-43-PLD is expected to adopt a common, structurally similar β sheet to compensate for the prion-like function of SMN through hetero-polymerization. […] Thus, the level of the prion-like conformer is critical for motor neuron survival, and other functionally unrelated prion-like proteins can compensate for the function of the defective protein."}, "SMA mice (Smn−/−SMN2+/−)": {"test_system": "SMA mice (Smn−/−SMN2+/−)", "test": "Motor function tests in SMA mice (turnover, tube, negative geotaxis)", "assay_type": "in vivo", "from_the_text": "Mice: A mouse model of SMA was produced by deleting exon 7 of the Smn gene and knock-in of the human SMN2 gene (Smn−/−SMN2+/−). We were able to generate a variant that presents a more severe disease symptomatology through back-crossing to obtain a more homogenous genetic background. This model of severe SMA harbors two copies of the SMN2 transgene (Smn−/−SMN2+/−). The mouse model of SMA was generated through crossing the heterozygous knockout mice (Smn+/−SMN2−/−) with the homozygous knockout mice carrying two copies of the SMN2 transgene (Smn−/−SMN2+/+). SMA mice were subjected to daily intraperitoneal injections of baicalein (40 mg/kg/d in alcohol) or alcohol alone (control) from birth and then subjected to motor function tests and survival analysis. Three behavioral tests, the turnover test, tube test and negative geotaxis test, were conducted to evaluate the motor function of mice with SMA (Smn−/−SMN2+/−) and heterozygous littermates (Smn+/−SMN2+/−), as previously described. In the turnover test, the time required for a mouse to right itself and place all four paws on the ground from a prone position was recorded (the cutoff time was 60 s). The tube test was used to determine hind limb strength according to the posture of the hind limbs and the tail; scores ranged from 0 (the worst) to 4 (the best). In the negative geotaxis test, mice were placed on a 45° incline with their head pointing downward. The responses (turning and climbing) were scored from 0 (the worst) to 4 (the best).\nA mouse model of SMA received daily intraperitoneal injections of baicalein ([…]) from birth, and we then assessed the animals using motor function tests and survival analyses to determine whether the in vitro findings were recapitulated in a mouse model in vivo (FIG. 10i). However, after baicalein treatment, the functional performance of SMA mice, including righting time, tube score, and tilting score, was improved at the 6th postnatal day (p<0.05), and the results were similar to heterozygous littermates treated with or without baicalein. […] Our studies provide a method for restoring the functional SMN protein by modulating the folding of the SMNA7 C-terminus and SMA-associated mutants to ensure that the protein performs the cellular functions of full-length SMN."}, "[3]": {"test_system": "p53 aggregates in 293T cells", "test": "p53 aggregates in 293T cells / p53 strains (immunofluorescence with p53 antibody)", "assay_type": "cell-based", "conditions": "293T cells", "procedure": "Immunohistochemistry: Fluorescence staining was performed as described previously (Wang et al., 2012). Cells were transfected with or without plasmids or siRNAs and grown for 24 to 48 hr. Cells were fixed with 3.7% paraformaldehyde in PBS at RT for 15 min and then permeabilized with 0.1% Triton X-100. The fixed cells were incubated with primary antibodies at RT for 2 hr followed by incubation with Cy2- or Cy3-labeled secondary antibodies (Molecular Probes). Slides were mounted using Vectashield DAPI H-1200 (Vector). Cellular fluorescence images were collected using an LSM710 META laser-scanning confocal microscope (Zeiss).\nWe observed a striking degree of heterogeneity among p53 aggregates in the cytosol of 293T cells by immunofluorescence with a p53 antibody, including long fibers (5-10 μm), short fibers (1.6-3.2 μm) and punctate aggregates (0.5-1 μm in diameter) (FIG. 16a, arrows). The length of the p53 fibers and p53 aggregates were analyzed (FIG. 16b). […] To determine whether these heterogeneous p53 amyloid patterns are inherited or are random conversions, we subcultured and isolated single colonies from heterogeneous pools of cells. […] We obtained four phenotypes shown in FIG. 16a, including long and short fibers, puncta, and diffuse nuclear staining, and these phenotypes were stably propagated (FIG. 16e). We termed these p53 phenotypes of the isolated strains as follows: p53 [L] (Long fibers), p53 [S] (Short fibers), p53 [P] (Puncta) and p53-NVA (No Visible Aggregates).\nAdditionally, we treated 293T cells with an Aβ amyloid disassembling agent, baicalein, following immunofluorescence staining with anti-p53 antibodies."}, "[4]": {"conditions": "SMA mice, daily intraperitoneal baicalein 13.6 mg/kg/d from birth, 6th postnatal day, p<0.05"}}}
{"smiles": "O=c1cc(-c2ccccc2)oc2cc(O)c(O)c(O)c12", "note": "[baicalein]", "values": [{"measurement": "TDP-43 polymers in nuclear fraction", "setting": "TDP-43 polymers; 293T cells, 0, 25 or 50 μM baicalein", "result": "compensatory increase in the nuclear fraction"}, {"measurement": "TDP-43 polymers", "setting": "TDP-43 polymers; baicalein-treated VCP/p97 R155H cells", "result": "increased TDP-43 polymers"}, {"measurement": "formation of SMNA7 aggregates", "setting": "[1]", "result": "decreased the formation of SMNA7 aggregates in 293T cells in a dose-dependent manner"}, {"measurement": "SMNA7 degradation", "setting": "SMNA7 protein", "result": "significantly reduced SMNA7 degradation"}, {"measurement": "increase of length of axons", "setting": "[2]", "result": "approximately 2 fold"}, {"measurement": "functional performance in the tube test versus control SMA mice", "setting": "SMA mice (Smn−/−SMN2+/−); 8th postnatal day, p=0.009", "result": "better than that of the control SMA mice"}, {"measurement": "functional performance better than control SMA mice in the negative geotaxis test", "setting": "SMA mice (Smn−/−SMN2+/−); 8th postnatal day, p=0.58", "result": "not"}, {"measurement": "righting time (turnover test)", "setting": "SMA mice (Smn−/−SMN2+/−); [4]", "result": "improved"}, {"measurement": "tilting score (negative geotaxis test)", "setting": "SMA mice (Smn−/−SMN2+/−); [4]", "result": "improved"}, {"measurement": "tube score", "setting": "SMA mice (Smn−/−SMN2+/−); [4]", "result": "improved"}, {"measurement": "p53 misfolded aggregates", "setting": "[3]; 25 μM baicalein", "result": "reduced p53 misfolded aggregates"}, {"measurement": "spontaneous aggregation of p53", "setting": "[3]; baicalein", "result": "suppressed the spontaneous aggregation of p53"}]}
